Assay results from patent US20230048888A1, “USE OF TRIAZOLOTRIAZINE DERIVATIVE IN TREATMENT OF DISEASES” (ZHEJIANG VIMGREEN PHARMACEUTICALS, LTD., priority 2019, published 2023).
Like-named read-outs stand apart in the source and are kept apart here.

Legend:
[1] = system: MPTP-induced Parkinson's disease; experiment: MPTP-induced mouse Parkinson's disease model, open field test; type: in vivo, C57BL/6 mice; conditions: open field 10 minutes
Description: By injecting the substantia nigra selective toxin MPTP, the mitochondria were intervened to induce lipid peroxidation for disturbing the membrane structure and affecting cell function, and finally the substantia nigra dopaminergic (DA) neurons were selectively destroyed, leading to the massive death of substantia nigra DA neurons, the massive loss of striatum tyrosine hydroxylase-positive fibers, and the significant decrease in the levels of striatum DA and its metabolites 3,4-dihydroxyphenylacetic acid and homovanillic acid. There are also the hyperplasia of the substantia nigra striatal microglia and astrocytes and the damage of locus coeruleus, hypothalamus and other areas, which are basically the same as those in patients with Parkinson's disease. The ameliorative effect of a test substance on the stiffness symptom of Parkinson's disease induced by MPTP in mice was evaluated.
C57BL/6 male mice of 8 weeks old were selected. The 8-week-old C57 mice were intraperitoneally (i.p.) injected with a vehicle dissolved in saline (normal saline) or MPTP (30 mg/kg body weight) for 5 days to induce the Parkinson's disease.
At 0.5 hours after the last MPTP injection, two doses (10 mpk and 30 mpk) were administered by intragastric administration.
At 1.5 hours after the last MPTP injection, an open field test (total travel distance and number of standings) was performed for 10 minutes.

[2] = system: CT26 cells; experiment: CT26 murine colon cancer homotransplantation model; type: in vivo, BALB/c mice
Description: The CT26 murine colon cancer homotransplantation model is a classic pharmaceutical effect evaluation model for colon cancer. It is constructed by subcutaneously inoculating CT26 to BALB/c mice. The test compounds were administrated to evaluate their inhibitory effects on tumor growth in the model.
CT26 cells were cultured in an RPMI1640 culture solution containing 10% fetal bovine serum. The CT26 cells in the exponential growth phase were collected and resuspended in PBS to a suitable concentration for subcutaneous tumor inoculation in mice.
(§1) Female mice were subcutaneously inoculated with 5×10^5 CT26 cells on the right side. The day of inoculation was defined as Day 0. On the second day (Day 1) of […] cell inoculation, the mice were administered randomly according to body weight.
(§2) Tumor proliferation rate, T/C %, was a percentage ratio of tumor volume or tumor weight between the treatment group and the control group at a certain time point. It was calculated with a formula was as follows:
(§3) T/C %=TTV/CTV×100% (TTV (TTV: the average TV of the treatment group at a specific time point;

[3] = Pharmacokinetic evaluation of Compound 22 in female BALB/c mice in different vehicles; type: in vivo; conditions: mouse, plasma, po, 100 mg/kg, 100 mg/kg p.o. single; for half-life: read-out: T½ (converted)
Description: BALB/c mice, female, 7-9 weeks old (the age of mice at the start of the experiment), weight: 19.2-22.1 g, […] (34 mice plus another 10 surplus mice). They were purchased from Shanghai Lingchang Biotechnology Co., Ltd. (LC), with animal certificate number: 2013001835211. Rearing environment: SPF level.
After single administration, plasma was collected from each group at 0.25 h, 0.5 h, 1 h, 2 h, 4 h, 6 h, 8 h and 24 h, with 3 mice at each time point, and the experiment was terminated after 24h. 10 remaining mice were used to collect blank plasma.

[4] = system: murine colon cancer MC38 cell line; experiment: Subcutaneous homotransplantation of murine colon cancer MC38 cell line in C57BL/6 female mice; type: in vivo; conditions: for T/C (%) / TGI (%) / Tumor volume: Day 22
Description: The MC38 mouse colon cancer cell model is a commonly used model for verifying a pharmaceutical effect on the colon cancer. It is mostly used to study the occurrence and metastasis direction of the colorectal cancer, and has become a common approach to the pharmaceutical effect verification for tumors. The anti-tumor effect of the subcutaneous homotransplantation of a test drug in a murine colon cancer MC38 cell line of C57BL/6 female mouse model was evaluated.
MC38 cells were cultured in a DMEM culture solution containing 10% fetal bovine serum. The MC38 cells in the exponential growth phase were collected and resuspended in PBS to a suitable concentration for subcutaneous tumor inoculation in mice.
as §1, with “1×10^6 MC38” for “5×10^5 CT26”, “weight. The solution of Compound 22 was prepared at 3 mg/mL and 10 mg/mL respectively for later use.” for “weight.”
Formula for calculating tumor volume: tumor volume (mm^3)=½×(a×b^2) (a representing a long diameter and b representing a short diameter);
as §2, §3
All experimental results were represented as the average tumor volume±SEM (mean standard error). Statistical analysis between different groups were conducted to select the optimal drug treatment point (usually after the last dosage). A comparison was conducted with the independent sample T test method to determine if there is a significant difference in tumor volume between the treatment group ad the control group. All data were analyzed with SPSS 18.0. P<0.05 indicated a significant difference.

[5] = Stability of acetate crystal at 60° C. closed and 40° C./75% RH open, HPLC purity and XRPD; type: physicochemical; conditions: for XPRD (crystal form after storage): 7 days; for Purity over 7 days (area %): initial purity 98.79 area %
Description: A certain amount of acetate crystal was held at 60° C. in a closed condition and at 40° C./75% RH in an open condition for a maximum of 7 days. Samples were taken on days 0, 3, and 7 and diluted with a diluent to about 0.3 mg/mL for HPLC purity testing. The solid samples were tested by XRPD to determine the crystal form.

[6] = Group 1, vehicle 40% PEG400/60% water
[7] = Group 2, vehicle 40% (2-hydroxypropyl)-β-cyclodextrin
[8] = 30 mg/kg p.o. QD combined with Anti-PD-1 100 μg/animal i.p.

Compound: Nc1nc(NCCc2ccc(NC3COC3)cc2)nc2nc(-c3ccco3)nn12 [Compound 22, 2-(furan-2-yl)-N5-(4-(oxetan-3-ylamino)phenethyl)-[1,2,4]triazolo[1,5-a][1,3,5]triazine-5,7-diamine]
- Moving distance (cm) ([1]; 10 mg/kg p.o. once): 647.0 cm
- Number of standings ([1]; 10 mg/kg p.o. once): 18.3
- Moving distance (cm) ([1]; 30 mg/kg p.o. once): 1107.3 cm
- Number of standings ([1]; 30 mg/kg p.o. once): 31.0
- T/C (%) ([2]; Day 26, 100 mg/kg p.o. QD): 81%
- TGI (%) ([2]; Day 26, 100 mg/kg p.o. QD): 19%
- Tumor volume ([2]; Day 26, 100 mg/kg p.o. QD, in mm³): 1988.56 ± 325.70
- Clinical abnormalities during the dosage ([2]; p.o. QD × 25 days): no obvious clinical abnormalities were observed
- AUC(0-inf) [3, 6]: 16100 ng·h/mL
- AUC(0-t) [3, 6]: 15900 ng·h/mL
- Cmax [3, 6]: 2080 ng/mL
- Tmax [3, 6]: 60 min
- half-life [3, 6]: 182 min
- AUC(0-inf) [3, 7]: 28500 ng·h/mL
- AUC(0-t) [3, 7]: 28400 ng·h/mL
- Cmax [3, 7]: 5580 ng/mL
- Tmax [3, 7]: 30 min
- half-life [3, 7]: 160 min
- T/C (%) ([4]; 30 mg/kg p.o. QD): 66%
- TGI (%) ([4]; 30 mg/kg p.o. QD): 34%
- Tumor volume ([4]; 30 mg/kg p.o. QD): 1205.60 ± 259.65 mm^3
- T/C (%) [4, 8]: 15%
- TGI (%) [4, 8]: 85%
- Tumor volume [4, 8]: 268.89 ± 57.10 mm^3
- T/C (%) ([4]; 100 mg/kg p.o. QD): 52%
- TGI (%) ([4]; 100 mg/kg p.o. QD): 48%
- Tumor volume ([4]; 100 mg/kg p.o. QD): 951.28 ± 116.30 mm^3
- Animal death / changes in body weight ([4]; alone or combined with anti-PD-1 antibody): no animal death or significant changes in body weight

Compound: CC(=O)O.Nc1nc(NCCc2ccc(NC3COC3)cc2)nc2nc(-c3ccco3)nn12 [Acetate of Compound 22, 2-(furan-2-yl)-N5-(4-(oxetane-3-ylamino)phenethyl)-[1,2,4]triazolo[1,5-a][1,3,5]triazine-5,7-diamine acetate]
- XPRD (crystal form after storage) ([5]; 40° C./75% RH open): Transformed
- Purity over 7 days (area %) ([5]; 40° C./75% RH open): 98.99 area %
- Degradation under test conditions ([5]; 60° C. and 40° C./75% RH, up to 7 days): no significant degradation
- XPRD (crystal form after storage) ([5]; 60° C. closed): Unchanged
- Purity over 7 days (area %) ([5]; 60° C. closed): 99.01 area %
